Measurements reported in patent US6613322B2, “Method for treating a subject suffering from conditions associated with an extracellular zinc sphingomyelinase” (The Trustees of Columbia University in the City of New York, priority 1997, dated 2003).

Biological target: T1, internalized S-SMase (Homo sapiens, UniProt P17405)
T1 construct: FLAG; purchased AMGEN, Boulder, Colo
T1 sequence (P17405 47-631): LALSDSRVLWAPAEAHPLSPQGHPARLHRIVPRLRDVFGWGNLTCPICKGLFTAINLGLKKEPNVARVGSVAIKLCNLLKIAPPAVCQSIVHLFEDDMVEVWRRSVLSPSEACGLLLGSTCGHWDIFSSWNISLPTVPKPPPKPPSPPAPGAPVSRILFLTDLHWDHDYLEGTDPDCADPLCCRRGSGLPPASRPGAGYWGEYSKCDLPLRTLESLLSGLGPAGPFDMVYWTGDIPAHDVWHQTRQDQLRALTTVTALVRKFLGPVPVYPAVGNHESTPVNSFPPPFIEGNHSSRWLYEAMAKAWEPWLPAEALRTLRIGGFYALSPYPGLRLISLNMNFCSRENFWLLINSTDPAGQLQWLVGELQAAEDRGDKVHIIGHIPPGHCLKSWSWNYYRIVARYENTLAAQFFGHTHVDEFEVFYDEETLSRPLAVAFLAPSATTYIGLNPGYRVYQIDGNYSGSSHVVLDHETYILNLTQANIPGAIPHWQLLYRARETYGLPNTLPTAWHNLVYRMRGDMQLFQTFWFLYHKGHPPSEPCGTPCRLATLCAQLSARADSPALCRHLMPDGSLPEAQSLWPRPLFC
Assay: SMase activity in homogenates of type A Niemann-Pick fibroblasts after internalization of FLAG-tagged S-SMase
Assay type: biochemical
Conditions: 0.1 mM ZnCl2, sonicated cell homogenates
Description: FIG. 17. Zn^2+-dependency of S-SMase after internalization by type A Niemann-Pick cells. Skin fibroblasts from a patient with type A Niemann-Pick disease (NP-A Cells) were grown to 90% confluency in medium supplemented with 10% HI-FBS. The cells were then washed three times with PBS and incubated in serum-free media containing 0.2% BSA and 850 ng immunoaffinity-isolated FLAG-tagged S-SMase (Purified S-SMase)/ml at 37° C. for 16 h. The cell homogenate and incubation medium were then prepared as described in “Experimental Procedures”, and aliquots were assayed for SMase activity in the presence of either 5 mM EDTA (hatched bars) or 0.1 mM ZnCl2 (solid bars) for 2 h at 37° C. at pH 5.0. […]
SMase Assay—As previously described (Schissel et al., 1996), the standard 200-μl assay mixture consisted of up to 40 μl of sample (conditioned media or homogenized cells; see above) and a volume of assay buffer (0.1 M sodium acetate, pH 5.0) to bring the volume to 160 μl. […] The ceramide spots were scraped and directly counted to quantify [^3H]ceramide. Typically, the assay reactions contained approximately 20 μg of cellular homogenate protein and a volume of conditioned media derived from a quantity of cells equivalent to approximately 50 μg of cellular protein. […]

## [Cl-].[Cl-].[Zn+2] [Zn^2+, ZnCl2]
  effect of added Zn2+ on cellular enzymatic activity: failed to increase
